Experimental data from patent US6174855A, “Pharmaceutical compositions comprising thrombin inhibitors and their use in the control of wound healing processes” (AstraZeneca AB, priority 1996, dated 2001).
Values joined by “and” are separate entries in the source; they are usually repeats but may differ in a detail not shown here. Equal entries are not always repeated. Values belong to the compound of their own block, whether it stands above or below them.

Assays:
[1] = Plasma concentration of inogatran during intraperitoneal minipump infusion; assay type: in vivo, rat
Text: (§1) The serosal surfaces of the stomachs of adult, anaesthetised rats were exposed in an area 7 mm diameter to 80% acetic acid over 60 seconds and then rinsed with buffered saline.

[2] = test system: fibrin-related adhesions between the stomach and the liver, the intestines and the omentum; assay: Acetic acid injury to the serosal surface of the rat stomach: formation of adhesions; assay type: in vivo; settings: for Adherences score: day 7
Experimental: The serosal surface of the stomach of an adult anaesthetised rat was exposed in an area of 7 mm diameter to 80% acetic acid over 60 seconds. After rinsing with buffered saline solution, an osmotic minipump (Alza 2001, volume about 220 μL; pumping rate about 1 μL/h; Alza Corp.; Palo Alto, Calif., USA; prefilled with a solution of the thrombin inhibitor melagatran, 2-100 μg/mL) was implanted into the peritoneal cavity, with the outlet of the pump kept open, and delivered its content into the abdominal cavity. The wounded area was covered by a chitosan membrane or, in an alternative experiment, a gel, having a diameter several millimeters larger than that of the injured area.
The serosal surface of the stomach of an adult, anaesthetised rat was exposed in an area of 7 mm diameter to 80% acetic acid over 60 seconds. After rinsing with buffered saline, the wounded area was covered by a chitosan membrane or, in an alternative experiment, a gel, having a diameter several millimeters larger than the injured area. An osmotic minipump (Alza 2001, volume about 220 μL; pumping rate about 1 μL/h; Alza Corp.; Palo Alto, Calif., USA; prefilled with a solution of the thrombin inhibitor melagatran, 2-100 μg/mL) was implanted subcutaneously, with the outlet of the pump kept open, delivering its content into the adjacent tissue. […]

[3] = Bleeding observations during inogatran minipump infusion; assay type: in vivo, rat; settings: day 7
Text: as §1

[4] = Plasma concentration of inogatran during intraperitoneal minipump infusion; assay type: in vivo, rat; settings: for Mean Plasma Conc.: two rats
[5] = test system: adhesions between injured area and adjacent muscles, muscle fascia, vessels, nerves and skin; assay: Surgical removal of thigh muscle fascia in rat: adhesions inspected after 10 days; assay type: in vivo; settings: subcutaneous minipump 0.2×100μg/mL, versus untreated animals
Text: An incision was made in the thigh through the skin into the muscle tissue in an anaesthetised adult rat, and the muscle fascia was surgically removed in a defined area (about 10×15 mm). The wound was sutured, and eventually opened for inspection after 10 days. Numerous adhesions were recognized, and the presence of granulation tissue were noticed to connect and lock the injured area to adjacent muscles, muscle fascia, vessels and nerves as well as to the skin.
An incision was made in the thigh through the skin into the muscle tissue in an anaesthetised adult rat and the muscle fascia was surgically removed in a defined area (about 10×15 mm). The muscle fascia was covered by a chitosan membrane or, in an alternative experiment, a gel, to which was connected a tube from an osmotic minipump, which had been implanted subcutaneously (Alza 2001, total volume about 220 μL; pumping rate about 1 μL/h; Alza Corp.; Palo Alto, Calif., USA; prefilled with a solution of the thrombin inhibitor melagatran, 0.2×100μg/mL). The wound was then sutured, and eventually opened and inspected after 10 days.

[6] = infusion rate 1*10 μL/h, 658 μg/h
[7] = infusion rate 2*10 μL/h, 1317 μg/h

Plasma Conc. ([1]; infusion rate 1*1 μL/h, 66 μg/h (124 and 142 μg/kg/h), day 1): 580 nM and 610 nM | Plasma Conc. ([1]; infusion rate 1*1 μL/h, 66 μg/h (124 and 142 μg/kg/h), day 7): 170 nM and 190 nM | Plasma Conc. ([1]; infusion rate 1*10 μL/h, 658 μg/h (1327 and 1351 μg/kg/h), day 7): 1880 nM and 1790 nM | Plasma Conc. ([1]; infusion rate 2*1 μL/h, 132 μg/h (269 and 248 μg/kg/h), day 1): 470 nM and 460 nM | Plasma Conc. ([1]; infusion rate 4*1 μL/h, 264 μg/h (588 and 558 μg/kg/h), day 1): 1270 nM and 810 nM | Plasma Conc. ([1]; infusion rate 4*1 μL/h, 264 μg/h (588 and 558 μg/kg/h), day 2): 470 nM and 890 nM | Plasma Conc. ([1]; infusion rate 4*1 μL/h, 264 μg/h (588 and 558 μg/kg/h), day 7): 570 nM and 870 nM | Mean Plasma Conc. ([1]; infusion rate 4*1 μL/h, 264 μg/h, two rats, day 7): 720 nM | bleeding observation [3, 6]: Minor Tendency to Bleed | bleeding observation [3, 7]: Diffuse Bleeding | Mean Plasma Conc. ([4]; infusion rate 1*1 μL/h, 66 μg/h, day 7): 180 nM | Mean Plasma Conc. ([4]; infusion rate 1*10 μL/h, 658 μg/h, day 7): 1840 nM | Plasma Conc. ([4]; infusion rate 2*1 μL/h, 132 μg/h (269 and 248 μg/kg/h), day 7): 240 nM and 370 nM | Mean Plasma Conc. ([4]; infusion rate 2*1 μL/h, 132 μg/h, day 7): 310 nM | Plasma Conc. ([4]; infusion rate 2*10 μL/h, 1317 μg/h (2761 μg/kg/h), day 1): 4440 nM | Plasma Conc. ([4]; infusion rate 2*10 μL/h, 1317 μg/h (2761 μg/kg/h), day 2): 2820 nM | Plasma Conc. ([4]; infusion rate 2*10 μL/h, 1317 μg/h (2761 μg/kg/h), day 7): 5560 nM
Compound: N=C(N)NCCCNC(=O)[C@@H]1CCCCN1C(=O)[C@@H](CC1CCCCC1)NCC(=O)O [inogatran, HOOC--CH2 --(R)Cha-Pic-Nag-H]
Adherences score ([2]; infusion rate 1*1 μL/h, 66 μg/h): 3 and 4 | Adherences score [2, 6]: 0 | Adherences score ([2]; infusion rate 2*1 μL/h, 132 μg/h): 2 | Adherences score [2, 7]: 0 | formation of adhesions, dose dependence ([2]; intraperitoneal minipump(s) 65.86 μg/μL, 1 to 20 μL/h, for a week): prevented in a dose-response related manner

Compound: hirudin
fibrin network or strands of granulation tissue between the stomach and the liver, the intestines and the omentum ([2]; intraperitoneal minipump for a week, wound covered by hyaluronan or chitosan membrane, up to 10 days): No fibrin network or strands of granulation tissue could be detected

Compound: N=C(N)c1ccc(CNC(=O)[C@@H]2CCN2C(=O)[C@H](NCC(=O)O)C2CCCCC2)cc1 [melagatran, HOOC--CH2 --(R)Cgl-Aze-Pab-H]
severity and dimensions of the adhesions formed between adjacent structures ([5]; tube connected to chitosan membrane or gel over the muscle fascia): strikingly reduced | granulation tissue connecting and locking the injured area to adjacent structures ([5]; tube connected to chitosan membrane or gel): largely not connecting | bridging tissue (adhesions) between the stomach and the liver, the intestines and the omentum ([2]; 100 μL of 100-500 μg/mL solution dripped daily onto chitosan membrane or gel, after 2 to 5 days): absolutely no bridging tissue | fibrin network or strands of granulation tissue between the stomach and the liver, the intestines and the omentum ([2]; intraperitoneal minipump 2-100 μg/mL, outlet connected to chitosan membrane or gel, up to 10 days): No fibrin network or strands of granulation tissue could be detected | fibrin network or strands of granulation tissue between the stomach and the liver, the intestines and the omentum ([2]; intraperitoneal minipump 2-100 μg/mL, outlet open into abdominal cavity, wound covered by chitosan membrane or gel, up to 10 days): No fibrin network, nor any strands of granulation tissue, could be detected | adhesions between the stomach and the liver, the intestines and the omentum ([2]; minipump in peritoneal cavity, 2-100 μg/mL, about 1 μL/h, no polysaccharide, up to 10 days): only scattered, delicate adhesions | fibrin network or strands of granulation tissue between the stomach and the liver, the intestines and the omentum ([2]; subcutaneous minipump 2-100 μg/mL, outlet open, wound covered by chitosan membrane or gel, up to 14 days): No fibrin network, nor any strands of granulation tissue, could be detected

Compound: streptokinase: fibrinolytic agent, purchased from Sigma Chemical Co
fibrin-platelet network or strands of granulation tissue between the stomach and the liver, the intestines and the omentum ([2]; intraperitoneal minipump, outlet connected to surface of chitosan membrane (or gel), up to 10 days): No fibrin-platelet network nor any strands of granulation tissue could be detected | fibrin network or strands of newly formed granulation tissue connecting the stomach with the liver, the intestines and the omentum ([2]; minipump in abdominal cavity, outlet free and open, wound covered by chitosan membrane or gel, up to 10 days): No fibrin network, nor any strands of newly formed granulation tissue, could be detected
